In patent EP1555944B1, “PACKAGED ANTIMICROBIAL MEDICAL DEVICE AND METHOD OF PREPARING SAME” (ETHICON, INC., priority 2002, dated 2004):

Assays:
[1] = Triclosan distribution between suture and package components after sterilization; assay type: physicochemical; details: size 5-0 suture, 2% triclosan coating composition, about 23.2 µg before sterilization
Procedure: The coated sutures each were placed in a package as described herein above including a containment component, i.e., a tray, for holding the suture and a paper component for covering the suture in the tray. The suture in the containment component and packaging were sterilized as described herein above. After sterilization, it was determined that that suture contained about 5.5 µg triclosan, the tray about 0.2 µg triclosan, the paper component about 2.3 µg triclosan, and the package heat seal coating about 1.5 µg triclosan. Triclosan not recovered after sterilization was about 13.7 µg triclosan. Fig. 1 indicates triclosan transfer from the antimicrobial suture to the tray of the package as a function of time at 55°C.

S. aureus = details: suitable growth medium; cited from earlier work

In the case of `Oc1cc(Cl)ccc1Oc1ccc(Cl)cc1Cl` [2,4,4'-trichloro-2'-hydroxydiphenyl ether], the “Triclosan not recovered after sterilization” value [1] is reported as “about 13.7 µg”, the “triclosan on package heat seal coating after sterilization” value [1] is reported as “about 1.5 µg” and the “triclosan on paper component after sterilization” value [1] is reported as “about 2.3 µg”. The “triclosan on suture after sterilization” value [1] was “about 5.5 µg”, the “triclosan on tray after sterilization” value [1] was “about 0.2 µg” and the “minimum inhibitory concentration (MIC)” value (S. aureus) was 0.01 ppm.
